The values that follow come from BindingDB's records for doi:10.1016/j.ejmech.2019.02.074 (University of Hull, 2019).

The assay deals with Transient receptor potential cation channel subfamily A member 1 (Homo sapiens, UniProt O75762). Kind of assay: Antagonist activity at human TRPA1 expressed in HEK293 cells assessed as inhibition of CA-induced increase in calcium influx incubated for 10 mins prior to CA addition by Fluo-4-AM dye based fluorescence assayy.

Where “and” joins values, the source holds several entries; their conditions need not be identical. Equal values may be shown once.

Sequence of Transient receptor potential cation channel subfamily A member 1 (O75762 whole entry): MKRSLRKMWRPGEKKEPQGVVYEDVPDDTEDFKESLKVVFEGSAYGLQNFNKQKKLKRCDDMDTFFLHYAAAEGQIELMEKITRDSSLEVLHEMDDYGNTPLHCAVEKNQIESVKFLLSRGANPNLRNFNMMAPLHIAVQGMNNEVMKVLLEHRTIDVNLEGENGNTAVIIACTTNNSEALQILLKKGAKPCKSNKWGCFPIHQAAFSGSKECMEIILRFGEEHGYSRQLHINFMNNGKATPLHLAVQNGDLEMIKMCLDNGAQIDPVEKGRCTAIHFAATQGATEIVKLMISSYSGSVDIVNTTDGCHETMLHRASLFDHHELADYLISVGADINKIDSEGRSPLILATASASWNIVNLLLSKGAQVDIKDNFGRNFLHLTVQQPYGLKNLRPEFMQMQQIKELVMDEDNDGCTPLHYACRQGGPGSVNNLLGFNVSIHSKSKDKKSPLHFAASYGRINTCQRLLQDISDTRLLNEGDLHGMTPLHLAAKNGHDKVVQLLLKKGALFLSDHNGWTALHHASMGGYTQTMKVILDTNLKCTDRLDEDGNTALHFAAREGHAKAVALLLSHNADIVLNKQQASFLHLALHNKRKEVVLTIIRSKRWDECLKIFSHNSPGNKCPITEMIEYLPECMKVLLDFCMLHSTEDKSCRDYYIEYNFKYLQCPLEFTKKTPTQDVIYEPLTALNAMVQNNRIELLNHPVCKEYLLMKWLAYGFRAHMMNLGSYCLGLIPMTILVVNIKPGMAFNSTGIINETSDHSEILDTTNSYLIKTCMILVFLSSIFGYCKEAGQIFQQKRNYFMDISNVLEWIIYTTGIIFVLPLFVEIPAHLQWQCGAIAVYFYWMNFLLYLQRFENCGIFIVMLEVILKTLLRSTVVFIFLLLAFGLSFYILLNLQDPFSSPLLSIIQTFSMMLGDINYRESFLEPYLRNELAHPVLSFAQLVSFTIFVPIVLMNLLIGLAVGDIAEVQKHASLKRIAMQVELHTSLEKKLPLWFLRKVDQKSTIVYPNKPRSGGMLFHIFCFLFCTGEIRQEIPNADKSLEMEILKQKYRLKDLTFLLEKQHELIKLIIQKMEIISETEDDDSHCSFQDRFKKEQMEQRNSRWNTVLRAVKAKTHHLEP

As usually defined, the IC50 is the concentration needed to halve the response being measured. Regarding `O=C(/C=C/c1ccc(Br)cc1)Nc1ccccc1C(=O)O`, the IC50 was 10 µM.

For `CC(=Cc1ccc(Cl)cc1)C(C)N=O` (configuration not stated) [4-(4-chlorophenyl)-3-methylbut-3-en-2-one oxime], the concentration for half-maximal inhibition (IC50) is 4.47 µM and 4.46 µM.
